Settings: Liquid, Capillary tube (Ostwald / Ubbelohde) method

O [water]
viscosity [mPa·s]
Settings	284.56 K	304.83 K	335.46 K	368.64 K	397.56 K	435.61 K
100 kPa	1.257	0.7654	0.4482	0.2938	–	–
10000 kPa	1.249	0.7725	0.4504	0.2966	0.2278	0.1679
40000 kPa	1.231	0.7745	0.4635	0.3086	0.2358	0.1745
